According to patent publication US20260138978A1, “POSITIVE ALLOSTERIC MODULATORS OF THE MUSCARINIC ACETYLCHOLINE RECEPTOR M1” (Vanderbilt University, priority 2022, published 2026):
pEC50: −log10 of the molar value.

How the values were obtained:
[1] = molecular target: T1, human mAChRM1 (Homo sapiens, UniProt P11229); experiment: mAChR M1 cell-based functional assay (calcium mobilization), positive allosteric modulator activity: increase in the EC20 acetylcholine response; details: for Emax: PAM mode; for pEC50: read-out: PAM Activity Human M1 EC50
T1 construct: host or cells: CHO-K1
T1 sequence (P11229 1-460): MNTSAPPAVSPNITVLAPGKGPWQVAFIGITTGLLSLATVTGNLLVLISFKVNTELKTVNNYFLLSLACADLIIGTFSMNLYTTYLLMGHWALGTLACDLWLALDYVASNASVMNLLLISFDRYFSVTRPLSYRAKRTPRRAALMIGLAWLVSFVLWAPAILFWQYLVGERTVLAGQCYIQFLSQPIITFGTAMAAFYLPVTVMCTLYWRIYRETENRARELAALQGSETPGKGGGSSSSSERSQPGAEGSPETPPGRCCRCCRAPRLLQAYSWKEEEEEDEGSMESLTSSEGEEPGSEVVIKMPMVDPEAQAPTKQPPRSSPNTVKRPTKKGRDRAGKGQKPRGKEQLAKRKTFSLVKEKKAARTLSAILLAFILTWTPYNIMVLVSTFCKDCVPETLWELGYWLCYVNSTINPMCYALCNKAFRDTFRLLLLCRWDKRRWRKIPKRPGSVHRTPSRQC
How it was run: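 CHO-K1 cells stably expressing human M1, loaded with Fluo-4 AM; calcium flux recorded on FDSS at 1 Hz over 300 s following compound addition. PAM activity is the concentration-dependent increase of an EC20 acetylcholine response; EC50 and Emax from four-parameter logistic fits of 11-point, 1:3 concentration series.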

[2] = molecular target: T1, human mAChRM1; experiment: mAChR M1 cell-based functional assay (calcium mobilization), agonist activity upon compound addition, Emax relative to acetylcholine maximum; details: for Agonist Activity Human M1 EC50 / pEC50: calcium mobilization upon compound addition; for Emax: relative to the maximum for acetylcholine
How it was run: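 CHO-K1 cells stably expressing human M1 were loaded with Fluo-4 AM for 50 min at 37 °C. Compound was added 4 s into a 300 s FDSS read at 1 Hz, over 11-point 1:3 dilution curves. Agonism was taken as a concentration-dependent rise in calcium fluorescence ratio, with Emax expressed relative to the acetylcholine maximum from four-parameter logistic fits.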

[3] = increase in the EC20 acetylcholine response

Emax [1] [%]	pEC50 [1, 3]	Agonist Activity Human M1 EC50 [2]	pEC50 [2]	Emax [2] [%]	PAM Activity Human M1 EC50 [1, 3]	Structure (SMILES)
62	5.72	inactive	–	–	–	Cn1cc2c(-c3cc(F)c(CN4Cc5ncccc5C4=O)c(C4CCCC4)c3)ccc(C(C)(C)O)c2n1 [Compound 66, 6-(2-cyclopentyl-6-fluoro-4-(7-(2-hydroxypropan-2-yl)-2-methyl-2H-indazol-4-yl)benzyl)-6,7-dihydro-5H-pyrrolo[3,4-b]pyridin-5-one]
83	6.87	inactive	–	–	–	[2H]C([2H])([2H])C(O)(c1ccc(-c2cc(F)c(CN3Cc4cccc(F)c4C3=O)c(F)c2)c2cn(C)nc12)C([2H])([2H])[2H] [Compound 156, 2-(2,6-difluoro-4-(7-(2-hydroxypropan-2-yl-1,1,1,3,3,3-d)-2-methyl-2H-indazol-4-yl)benzyl)-7-fluoroisoindolin-1-one]
86	6.65	inactive	–	–	–	Cn1cc2c(-c3cc(F)c(CN4Cc5ncccc5C4=O)c(F)c3)ccc(C3(O)CCC(C#N)CC3)c2n1 (centres unmarked) [Compound 101, 4-(4-(3,5-difluoro-4-((5-oxo-5,7-dihydro-6H-pyrrolo[3,4-b]pyridin-6-yl)methyl)phenyl)-2-methyl-2H-indazol-7-yl)-4-hydroxycyclohexane-1-carbonitrile]
48	≤ 5.00	inactive	–	–	–	Cn1cc(-c2ccc(CN3Cc4ncccc4C3=O)cc2)c(C(C)(C)O)n1 [Compound 32, 6-(4-(3-(2-hydroxypropan-2-yl)-1-methyl-1H-pyrazol-4-yl)benzyl)-6,7-dihydro-5H-pyrrolo[3,4-b]pyridin-5-one]
47	≤ 5.00	inactive	–	–	–	Cc1cc(-c2cn(C)nc2C(C)(C)O)ccc1CN1Cc2ncccc2C1=O [Compound 31, 6-(4-(3-(2-hydroxypropan-2-yl)-1-methyl-1H-pyrazol-4-yl)-2-methylbenzyl)-6,7-dihydro-5H-pyrrolo[3,4-b]pyridin-5-one]
80	6.27	–	≤ 5.00	17	–	Cc1cnc2c(c1)C(=O)N(Cc1c(F)cc(-c3ccc(C(C)(C)O)c4nn(C)cc34)cc1F)C2 [Compound 174, 6-(2,6-difluoro-4-(7-(2-hydroxypropan-2-yl)-2-methyl-2H-indazol-4-yl)benzyl)-3-methyl-6,7-dihydro-5H-pyrrolo[3,4-b]pyridin-5-one]
78	5.96	inactive	–	–	–	CCc1cnc2c(c1)C(=O)N(Cc1c(F)cc(-c3ccc(C(C)(C)O)c4nn(C)cc34)cc1F)C2 [Compound 176, 6-(2,6-difluoro-4-(7-(2-hydroxypropan-2-yl)-2-methyl-2H-indazol-4-yl)benzyl)-3-ethyl-6,7-dihydro-5H-pyrrolo[3,4-b]pyridin-5-one]
86	6.19	–	5.01	21	–	Cn1cc2c(-c3cc(F)c(CN4Cc5cccnc5C4=O)c(C4CCCC4)c3)ccc(C(C)(C)O)c2n1 [Compound 136, 6-(2-cyclopentyl-6-fluoro-4-(7-(2-hydroxypropan-2-yl)-2-methyl-2H-indazol-4-yl)benzyl)-5,6-dihydro-7H-pyrrolo[3,4-b]pyridin-7-one]
84	6.20	inactive	–	–	–	Cn1cc2c(-c3cc(F)c(CN4Cc5ncccc5C4=O)c(F)c3)ccc(C3(O)CCC3)c2n1 [Compound 96, 6-(2,6-difluoro-4-(7-(1-hydroxycyclobutyl)-2-methyl-2H-indazol-4-yl)benzyl)-6,7-dihydro-5H-pyrrolo[3,4-b]pyridin-5-one]
69	5.70	inactive	–	–	–	CC(C)(O)c1ccc(-c2cc(F)c(CN3Cc4ncccc4C3=O)c(F)c2)cc1Cl [Compound 8, 6-((3′-chloro-3,5-difluoro-4′-(2-hydroxypropan-2-yl)-[1,1′-biphenyl]-4-yl)methyl)-6,7-dihydro-5H-pyrrolo[3,4-b]pyridin-5-one]
86	7.35	–	5.28	47	–	Cn1cc2c(-c3cc(F)c(CN4Cc5ncccc5C4=O)c(C4CC4)c3)ccc(C(C)(C)O)c2n1 [Compound 3, 6-(2-cyclopropyl-6-fluoro-4-(7-(2-hydroxypropan-2-yl)-2-methyl-2H-indazol-4-yl)benzyl)-6,7-dihydro-5H-pyrrolo[3,4-b]pyridin-5-one]
83	6.09	inactive	–	–	–	CC(C)(O)c1ccc(-c2cc(F)c(CN3Cc4ncccc4C3=O)c(C3CC3)c2)cc1 [Compound 10, 6-((3-cyclopropyl-5-fluoro-4′-(2-hydroxypropan-2-yl)-[1,1′-biphenyl]-4-yl)methyl)-6,7-dihydro-5H-pyrrolo[3,4-b]pyridin-5-one]
66	5.64	inactive	–	–	–	CCC(O)(CC)c1ccc(-c2cc(F)c(CN3Cc4ncccc4C3=O)c(F)c2)c2cn(C)nc12 [Compound 54, 6-(2,6-difluoro-4-(7-(3-hydroxypentan-3-yl)-2-methyl-2H-indazol-4-yl)benzyl)-6,7-dihydro-5H-pyrrolo[3,4-b]pyridin-5-one]
68	6.79	inactive	–	–	–	COc1cc(-c2ccc(C(C)(C)O)c3nn(C)cc23)cc(F)c1CN1Cc2ncccc2C1=O [Compound 60, 6-(2-fluoro-4-(7-(2-hydroxypropan-2-yl)-2-methyl-2H-indazol-4-yl)-6-methoxybenzyl)-6,7-dihydro-5H-pyrrolo[3,4-b]pyridin-5-one]
60	5.89	inactive	–	–	–	C[C@H](c1c(F)cc(-c2ccc(C(C)(C)O)c3nn(C)cc23)cc1F)N1Cc2ncccc2C1=O [Compound 94, (R)-6-(1-(2,6-difluoro-4-(7-(2-hydroxypropan-2-yl)-2-methyl-2H-indazol-4-yl)phenyl)ethyl)-6,7-dihydro-5H-pyrrolo[3,4-b]pyridin-5-one]
27	≤ 5.00	inactive	–	–	–	Cn1cc2c(-c3ccc(CN4Cc5ncccc5C4=O)nn3)ccc(C(C)(C)O)c2n1 [Compound 112, 6-((6-(7-(2-hydroxypropan-2-yl)-2-methyl-2H-indazol-4-yl)pyridazin-3-yl)methyl)-6,7-dihydro-5H-pyrrolo[3,4-b]pyridin-5-one]
82	6.60	–	5.16	11	–	Cn1cc2c(-c3cc(F)c(CN4Cc5ncccc5C4=O)c(F)c3)ccc(C3(O)COC3)c2n1 [Compound 89, 6-(2,6-Difluoro-4-(7-(3-hydroxyoxetan-3-yl)-2-methyl-2H-indazol-4-yl)benzyl)-6,7-dihydro-5H-pyrrolo[3,4-b]pyridin-5-one]
–	–	inactive	–	–	inactive	CC(C)(O)c1cc(-c2cc(F)c(CN3Cc4ncccc4C3=O)c(F)c2)cc2c1OCO2 [Compound 17, 6-(2,6-difluoro-4-(7-(2-hydroxypropan-2-yl)benzo[d][1,3]dioxol-5-yl)benzyl)-6,7-dihydro-5H-pyrrolo[3,4-b]pyridin-5-one]
80	6.36	inactive	–	–	–	Cn1cc2c(-c3cc(F)c(CN4Cc5ncccc5C4=O)c(C(F)(F)F)c3)ccc(C(C)(C)O)c2n1 [Compound 76, 6-(2-fluoro-4-(7-(2-hydroxypropan-2-yl)-2-methyl-2H-indazol-4-yl)-6-(trifluoromethyl)benzyl)-6,7-dihydro-5H-pyrrolo[3,4-b]pyridin-5-one]
66	6.53	–	≤ 5.00	21	–	Cn1cc2cc(-c3cc(F)c(CN4Cc5ncccc5C4=O)c(F)c3)cc(C(C)(C)O)c2n1 [Compound 33, 6-(2,6-difluoro-4-(7-(2-hydroxypropan-2-yl)-2-methyl-2H-indazol-5-yl)benzyl)-6,7-dihydro-5H-pyrrolo[3,4-b]pyridin-5-one]
67	6.02	inactive	–	–	–	Cn1cc2cc(-c3ccc(CN4Cc5ncccc5C4=O)cc3)cc(C(C)(C)O)c2n1 [Compound 36, 6-(4-(7-(2-hydroxypropan-2-yl)-2-methyl-2H-indazol-5-yl)benzyl)-6,7-dihydro-5H-pyrrolo[3,4-b]pyridin-5-one]
86	6.64	–	≤ 5.00	20	–	Cn1cc2c(-c3cc(F)c(CN4Cc5cccnc5C4=O)c(Cl)c3)ccc(C(C)(C)O)c2n1 [Compound 122, 6-(2-Chloro-6-fluoro-4-(7-(2-hydroxypropan-2-yl)-2-methyl-2H-indazol-4-yl)benzyl)-5,6-dihydro-7H-pyrrolo[3,4-b]pyridin-7-one]
